Assay results from paper PMC6314390 (The Journal of General Physiology, 2019).

Legend:
[1] = target: T1, cardiac troponin C (cTnC) (Homo sapiens, UniProt P63316, C35S/C84S); experiment: 2D [1H, […]]-HSQC NMR titration; format: binding
[2] = target: T1, cardiac troponin C (cTnC); experiment: 2D [1H, […]]-HSQC NMR titration; format: binding; remark: listed apart in the source

| Kd [2] [µM] | SMILES | 2D [1H,15N]-HSQC NMR titration [1] |
| --- | --- | --- |
|  | CC(C)COCC(CN(Cc1ccccc1)c1ccccc1)N1CCCC1 (centres unmarked) [bepridil] | As bepridil is titrated into cTnC, NMR signals corresponding to the cNTnC domain move as the conformational equilibrium shifts |
| 6 ± 1 | Clc1cccc(Nc2ccccc2)c1 [3-Cl-DPA, 3-Chlorodiphenylamine] |  |
